Experimental data reported in PubChem BioAssay AID2060907 (Molecular Pharmacology Branch, DTP, NCI, 2025).

Tested on: 388556-164-R-J1-PDC complex spheroid viability
Assay: Anticancer human tumor 388556-164-R-J1-PDC patient-derived colon adenocarcinoma cell line growth inhibition [RAS]
Conditions: for IC50: curve of first compound; for viability, T/C: stronger effect = lower value
How it was run: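 Agents were tested in combination matrices in half-log decrements from a top concentration at or near clinical Cmax (10 microM if undetermined). Targets were multi-cell spheroids of tumour lines plus HUVEC and MSC stromal cells.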
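Note: spheroids exposed to compound for 7 days before readout.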
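Throughout, for viability, T/C: 100% = DMSO vehicle control luminescence.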

## C=CC(=O)N1CCN(c2nc(OCC3CCCN3C)nc3c(F)c(-c4nc(N)cc(C)c4C(F)(F)F)c(Cl)cc23)C(C)C1 (configuration not stated) + C#Cc1c(F)ccc2cc(O)cc(-c3ncc4c(N5CC6CCC(C5)N6)nc(OCC56CCCN5CC(F)C6)nc4c3F)c12
Second compound 0.0316 µM
  IC50: > 1 µM
Second compound 0.1 µM
  IC50: > 1 µM
Second compound 0.316 µM
  IC50: > 1 µM
Second compound 1 µM
  IC50: > 1 µM
Second compound 3.16 µM
  IC50: > 1 µM
Second compound 10 µM
  IC50: > 1 µM
Second compound 0.0316 µM, first compound 0.00316 µM
  viability, T/C: 102%
Second compound 0.0316 µM, first compound 0.01 µM
  viability, T/C: 117%
Second compound 0.0316 µM, first compound 0.0316 µM
  viability, T/C: 110%
Second compound 0.0316 µM, first compound 0.1 µM
  viability, T/C: 107%
Second compound 0.0316 µM, first compound 0.316 µM
  viability, T/C: 110%
Second compound 0.0316 µM, first compound 1 µM
  viability, T/C: 111%
Second compound 0.1 µM, first compound 0.00316 µM
  viability, T/C: 108%
Second compound 0.1 µM, first compound 0.01 µM
  viability, T/C: 109%
Second compound 0.1 µM, first compound 0.0316 µM
  viability, T/C: 105%
Second compound 0.1 µM, first compound 0.1 µM
  viability, T/C: 109%
Second compound 0.1 µM, first compound 0.316 µM
  viability, T/C: 112%
Second compound 0.1 µM, first compound 1 µM
  viability, T/C: 102%
Second compound 0.316 µM, first compound 0.00316 µM
  viability, T/C: 99.4%
Second compound 0.316 µM, first compound 0.01 µM
  viability, T/C: 94.5%
Second compound 0.316 µM, first compound 0.0316 µM
  viability, T/C: 97.4%
Second compound 0.316 µM, first compound 0.1 µM
  viability, T/C: 102%
Second compound 0.316 µM, first compound 0.316 µM
  viability, T/C: 111%
Second compound 0.316 µM, first compound 1 µM
  viability, T/C: 96.2%
Second compound 1 µM, first compound 0.00316 µM
  viability, T/C: 95.3%
Second compound 1 µM, first compound 0.01 µM
  viability, T/C: 93.1%
Second compound 1 µM, first compound 0.0316 µM
  viability, T/C: 75.5%
Second compound 1 µM, first compound 0.1 µM
  viability, T/C: 89.2%
Second compound 1 µM, first compound 0.316 µM
  viability, T/C: 107%
Second compound 1 µM, first compound 1 µM
  viability, T/C: 86.5%
Second compound 3.16 µM, first compound 0.00316 µM
  viability, T/C: 84.4%
Second compound 3.16 µM, first compound 0.01 µM
  viability, T/C: 80.9%
Second compound 3.16 µM, first compound 0.0316 µM
  viability, T/C: 85.3%
Second compound 3.16 µM, first compound 0.1 µM
  viability, T/C: 92.1%
Second compound 3.16 µM, first compound 0.316 µM
  viability, T/C: 99.6%
Second compound 3.16 µM, first compound 1 µM
  viability, T/C: 80%
Second compound 10 µM, first compound 0.00316 µM
  viability, T/C: 72.3%
Second compound 10 µM, first compound 0.01 µM
  viability, T/C: 58.4%
Second compound 10 µM, first compound 0.0316 µM
  viability, T/C: 68.7%
Second compound 10 µM, first compound 0.1 µM
  viability, T/C: 68.8%
Second compound 10 µM, first compound 0.316 µM
  viability, T/C: 76.2%
Second compound 10 µM, first compound 1 µM
  viability, T/C: 55.8%
